Series [1] deals with HL-60. The following applies: HL-60 cell line; Du et al. 2005; read-out: IC50 (inhibitory concentration of 50%), tumor growth; cited from earlier work.
The test system of series [2] is MCF-7. The following applies: MCF-7 cell line; Du et al. 2005; read-out: IC50 (inhibitory concentration of 50%), tumor growth; cited from earlier work.
The test system of series [3] is KG-1a cells. The following applies: 48 hours.
Protocol: The KG-1a cells, which are an early phenotype of human acute myeloid leukemia (American Type Culture Collection, Manassas, Va.), were grown in complete growth medium [Iscove's Modified Dulbeco's Medium (American Type Culture Collection, Manassas, Va.)] supplemented with 20% fetal bovine serum (Sigma-Aldrich, UK) and 1% Penicillin-Streptomycin (GIBCO Invitrogen Corporation, Carlsbad, Calif.) at 37° C. in a humidified 5% CO2 incubator.
The KG-1a cells were cultured for 48 hours in 12-well tissue culture plates, each containing complete growth medium at a concentration of 2×10^6 cells 1 ml, and each well contained a total volume of two milliliters. Thalidomide (TOCRIS Bioscience, Ellisville, Mo.) was added at a concentration of 5 mg/L whether used alone or in combination with other chemotherapeutic agents. Interleukin-2 (Proleukin®, Aldesleuken for injection) (CHIRON Therapeutics, Emeryville, Calif.) was added at a concentration of 200 IU/ml whether used alone or in combination with thalidomide or arsenic trioxide. Arsenic trioxide (Sigma-Aldrich, Inc., St. Louis, Mo.) was added at concentrations of 2 μM and 4 μM with and without 100 μM of ascorbic acid in the first flow cytometry study, and at 4 μM in the rest of the studies either alone or combined with thalidomide and interleukin-2. A control culture containing neither thalidomide nor interleukin-2 nor arsenic trioxide was set up in conditions otherwise identical. All the control and treated cultures were set in duplicate and incubated for 48 hours at 37° C. in a humidified 5% CO2 incubator.
The detection of apoptosis and necrosis by Annex in V-FITC assay using flow cytometric analysis was carried out as described in the Annexin V-FITC Apoptosis Detection Kit (BioVision, Inc., Mountain View, Calif.) manual. Staurosporine (Sigma-Aldrich, Inc., St. Louis, Mo.) was used as a positive control at a concentration of 10 μM and was incubated only for 24 hours with the cells. Briefly, after the KG-1a cells were incubated for 48 hours, they were harvested by centrifugation at 1,300 RPM for five minutes. Cells were resuspended in 500 μl of 1× binding buffer. Then 5 μl of Annexin V-FITC and 5 μl of propidium iodide (PI) were added to all tubes (except the negative control which contained no staining and no treatment; for the Annexin V-FITC controls only the Annexin V-FITC was added; and for the Propidium Iodide control only PI was added). All tubes were incubated at room temperature for five minutes in the dark.
Results were subjected to one way ANOVA. Statistical significant differences between means was set at p<0.05.
The test system of series [4] is APL cell line NB4. Details: unit not given here. The following applies: APL studies, cited from earlier work.
The target of series [5] is T1, PML/RAR-α fusion protein (Homo sapiens, UniProt P10276+P29590).
T1 construct: host or cells: NB4 cells (endogenous t(15;17) fusion)
T1 sequence (P29590+P10276 with tags, fused parts or gaps): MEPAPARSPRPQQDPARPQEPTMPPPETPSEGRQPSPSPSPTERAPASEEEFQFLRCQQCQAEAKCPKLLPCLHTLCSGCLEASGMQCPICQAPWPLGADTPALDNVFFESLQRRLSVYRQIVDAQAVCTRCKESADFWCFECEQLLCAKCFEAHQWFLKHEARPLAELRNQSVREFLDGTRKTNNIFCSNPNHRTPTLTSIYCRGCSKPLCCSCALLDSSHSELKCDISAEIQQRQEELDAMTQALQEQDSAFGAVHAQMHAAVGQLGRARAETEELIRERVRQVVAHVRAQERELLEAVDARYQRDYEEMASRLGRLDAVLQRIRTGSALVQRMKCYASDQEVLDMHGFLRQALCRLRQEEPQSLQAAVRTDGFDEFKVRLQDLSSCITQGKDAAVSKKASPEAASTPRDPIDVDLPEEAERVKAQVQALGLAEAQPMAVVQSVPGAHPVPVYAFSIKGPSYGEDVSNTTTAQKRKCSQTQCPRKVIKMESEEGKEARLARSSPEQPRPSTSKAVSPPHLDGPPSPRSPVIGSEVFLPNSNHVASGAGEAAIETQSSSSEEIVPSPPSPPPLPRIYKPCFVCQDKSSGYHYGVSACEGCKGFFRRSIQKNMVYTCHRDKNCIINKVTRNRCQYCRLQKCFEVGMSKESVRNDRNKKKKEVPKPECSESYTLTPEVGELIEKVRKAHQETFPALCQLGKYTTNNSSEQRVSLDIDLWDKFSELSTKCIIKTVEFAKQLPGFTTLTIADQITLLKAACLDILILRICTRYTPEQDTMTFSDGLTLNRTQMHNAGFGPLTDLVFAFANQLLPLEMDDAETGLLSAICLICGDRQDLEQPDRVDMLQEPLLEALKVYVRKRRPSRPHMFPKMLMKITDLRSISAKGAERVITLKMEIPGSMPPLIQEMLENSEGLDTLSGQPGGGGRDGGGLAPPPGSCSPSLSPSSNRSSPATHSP
The arrangement: unit not given here. The following applies: NB4 cells; cited from earlier work.

Setting [6] is: thalidomide 5 mg/L, As2O3 4 μM, IL-2 200 IU/ml, alone or combined.
The mark [7] stands for this setting: As2O3 2 μM, with or without ascorbic acid 100 μM.
Setting [8] is: As2O3 4 μM, with or without ascorbic acid 100 μM.

Results on two compounds are retold here after patent publication US20110256236A1 (priority 2010, published 2011).

Read-outs that look alike come from different tables or passages of the source.

For the compound `O=C1CCC(N2C(=O)c3ccccc3C2=O)C(=O)N1` (stereo not drawn) [Thalidomide, α-(N-phthalimido) glutarimide], the IC50 was 22.1 ± 2.15 µM in series [1] and 18.4 ± 2.34 µM in series [2]. Moreover, the “% Early apoptosis” value in series [3] (setting [6]) is reported as 7.92%. Further, the “% Late apoptosis” value in series [3] (setting [6]) was determined as 49.385%; in series [3] (thalidomide 5 mg/L, As2O3 4 μM, IL-2 200 IU/ml, alone or combined, listed as thalidomide), 49.39%. Also, the “% Necrosis” value in series [3] (setting [6]) came out at 1.155%.
Consider arsenic trioxide [As2O3], for which the “concentrations inducing partial differentiation” value in series [4] (low concentrations) is recorded as 0.1-0.5. In series [4] (relatively high concentrations), the concentrations inducing apoptosis is 0.5-2.0. Also, in series [3] (setting [7]), the “% Early apoptosis” value is 14.50%, the “% Late apoptosis” value is 6.88%, the “% Live Cells” value is listed as 75.94% and the “% Necrotic Cells” value is listed as 2.68%. Also, in series [3] (setting [8]), the “% Early apoptosis” value was determined as 20.87%, the “% Late apoptosis” value worked out at 8.31%, the “% Live Cells” value is 69.56% and the “% Necrotic Cells” value turned out to be 1.26%. Further, in series [3] (setting [6]), the “% Early apoptosis” value came out at 10.095%, the “% Late apoptosis” value is listed as 16.965%, the “% Necrosis” value worked out at 0.59% and the “cytotoxic effect (in words)” value is recorded as “modest cytotoxic effect”. Moreover, the “% Late apoptosis” value in series [3] (thalidomide 5 mg/L, As2O3 4 μM, IL-2 200 IU/ml, alone or combined, listed as Arsenic trioxide) worked out at 16.97%. Moreover, the “concentrations inducing degradation of PML/RAR-α (and wild type PML)” value in series [5] is recorded as 0.5-2.0.
